Molecular target: T1, PDE 4B (Homo sapiens, UniProt Q07343)
T1 construct: gene PDE4B
Assay: PDE4B enzyme inhibition assay (according to Schulz et al.)
Format: biochemical

T1 sequence (Q07343 whole entry): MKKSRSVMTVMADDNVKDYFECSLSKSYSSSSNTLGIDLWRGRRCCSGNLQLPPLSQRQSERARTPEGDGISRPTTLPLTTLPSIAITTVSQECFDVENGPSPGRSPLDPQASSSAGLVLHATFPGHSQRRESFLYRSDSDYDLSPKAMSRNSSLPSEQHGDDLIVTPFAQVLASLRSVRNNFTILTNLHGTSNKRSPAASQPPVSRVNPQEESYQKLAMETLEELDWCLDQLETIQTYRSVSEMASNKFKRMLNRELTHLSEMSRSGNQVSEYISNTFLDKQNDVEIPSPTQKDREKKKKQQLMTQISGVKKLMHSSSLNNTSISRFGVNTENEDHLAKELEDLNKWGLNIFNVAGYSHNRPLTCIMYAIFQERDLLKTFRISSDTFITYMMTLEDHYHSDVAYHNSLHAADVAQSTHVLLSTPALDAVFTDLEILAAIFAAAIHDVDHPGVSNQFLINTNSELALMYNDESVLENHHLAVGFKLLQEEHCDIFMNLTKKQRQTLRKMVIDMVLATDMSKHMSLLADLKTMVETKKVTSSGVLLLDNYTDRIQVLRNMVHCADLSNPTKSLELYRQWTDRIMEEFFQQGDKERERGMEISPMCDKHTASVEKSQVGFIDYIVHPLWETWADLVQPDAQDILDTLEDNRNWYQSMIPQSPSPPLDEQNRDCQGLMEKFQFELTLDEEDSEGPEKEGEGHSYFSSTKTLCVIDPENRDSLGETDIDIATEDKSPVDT

SMILES | IC50
COC(=O)c1cccc2nc3c(C(O)C(CCCC(C)C(C)O)C(=O)OC)cccc3nc12 (stereo not drawn) [compound 2, Streptophenazine J] | 12 µM
CCC(C)CCC[C@@H](C(=O)OC)[C@H](O)c1cccc2nc3c(C(=O)O)cccc3nc12 (stereo partly drawn) [compound 3, Streptophenazine K] | 12.2 µM
CCC(C)CCC[C@@H](C(=O)OC)[C@H](O)c1cccc2nc3c(C(=O)OC)cccc3nc12 (stereo partly drawn) [compound 9, Streptophenazine G] | 5.2 µM

Reference: publication PMC4012441, “Nature’s Lab for Derivatization: New and Revised Structures of a Variety of Streptophenazines Produced by a Sponge-Derived Streptomyces Strain” (Marine Drugs, 2014)
